Measured values published in patent US8653257B2, “Dibenzothiazepine derivatives and uses thereof—424” (Astrazeneca AB, priority 2008, dated 2014).

Legend:
dopamine D2s receptor = dopamine D2s receptor (Homo sapiens (Human), UniProt P14416); assay: D2 antagonist GTPγS functional assay; type: biochemical; conditions: antagonist mode
Description: In vitro experimental assays can generally be carried out as described herein. Briefly, CHO-K1 cells stably transfected with the dopamine D2s receptor can be used in the experiments and maintained in Ham's F12 culture medium supplemented with 2 mM L-glutamine, 10% FBS, and 500 μg/ml Hygromycin.
GTPgS assay can be performed substantially as described by Lazareno, Methods in Molecular Biology, 1999, 106, 231-245. Antagonist activity of compounds can be determined by the ability of test compounds to block dopamine-stimulated [^35S]-GTPγS binding to cell membranes from D2s stably-transfected CHO cells.

[1] = system: D-Amphetamine-induced Hyperlocomotor Activity; assay: D-Amphetamine-induced hyperlocomotor activity (LMA) in habituated rat model; type: in vivo, male Long Evans rats; conditions: 30 mg/kg and 60 mg/kg (sc)
Description: Studies in vivo can be used to determine the antipsychotic effect and are generally carried out as follows. Briefly, D-Amphetamine-induced Hyperlocomotor Activity (LMA) in a Habituated Rat Model can be assessed in male Long Evans rats using a paradigm that includes a habituation phase followed by administration of 1 mg/kg D-amphetamine. Animals can be allowed to acclimatize to the testing room for 1 hour before being weighed and placed into activity chambers. Thirty minutes after LMA measurement is begun, animals can be briefly removed, dosed via the sub-cutaneous route (s.c.) with vehicle or test drug at different doses and returned to the chambers. After a further 30 minutes, animals can again be removed and dosed with vehicle or D-amphetamine at 1 mg/kg (s.c.). After returning the animals to the activity chambers, LMA can be assessed for a further 60 minutes. Haloperidol (0.1 mg/kg dissolved in H2O) can be administered 15 minutes prior to D-amphetamine via the s.c. route. Statistical analysis can be made of total distance traveled after D-amphetamine administration using ANOVA and Tukey's post hoc analysis where appropriate. All values can be expressed as Mean and SD.

[2] = system: Conditioned Avoidance Responding; assay: Conditioned avoidance responding (CAR) assay; type: in vivo, Male Long-Evans rats; conditions: 30 mg/kg and 60 mg/kg (sc), rat
Description: Male Long-Evans rats can be trained to traverse to the opposite side of a standard shuttle cage following presentation of an auditory and visual stimulus to avoid delivery of electric shock to the floor of the cage. Daily sessions can consist of up to 80 trials. If a shock is delivered, animals have the opportunity to escape the shock by traversing to the opposite side of the cage. Drug can be administered (via s.c. or p.o. route) 60 minutes prior to testing and the percentage of trials in which shock is avoided and escaped can be recorded.

H1 receptor = H1 receptor (Homo sapiens (Human), UniProt P35367); assay: H1 receptor binding; set-up: species or system Hu; conditions: one average result
Text: The H1 receptor binding method can be carried out in accordance with De Backer et al., Biochem. Biophys. Res. Commun., 1993, 197(3), 1601.

Sequence of dopamine D2s receptor (P14416 other isoform, or with tags, fused parts or gaps): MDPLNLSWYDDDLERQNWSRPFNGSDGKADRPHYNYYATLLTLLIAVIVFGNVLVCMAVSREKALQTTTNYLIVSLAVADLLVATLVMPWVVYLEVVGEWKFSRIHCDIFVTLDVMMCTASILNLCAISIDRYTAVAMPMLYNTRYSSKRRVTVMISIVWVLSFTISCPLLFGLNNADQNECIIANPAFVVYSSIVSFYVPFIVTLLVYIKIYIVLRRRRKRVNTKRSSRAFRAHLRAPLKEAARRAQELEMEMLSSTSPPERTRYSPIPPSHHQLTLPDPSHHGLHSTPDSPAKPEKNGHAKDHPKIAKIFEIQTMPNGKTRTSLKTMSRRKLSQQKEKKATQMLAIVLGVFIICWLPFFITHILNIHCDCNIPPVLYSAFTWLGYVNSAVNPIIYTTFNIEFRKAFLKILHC
Sequence of H1 receptor (P35367 whole entry): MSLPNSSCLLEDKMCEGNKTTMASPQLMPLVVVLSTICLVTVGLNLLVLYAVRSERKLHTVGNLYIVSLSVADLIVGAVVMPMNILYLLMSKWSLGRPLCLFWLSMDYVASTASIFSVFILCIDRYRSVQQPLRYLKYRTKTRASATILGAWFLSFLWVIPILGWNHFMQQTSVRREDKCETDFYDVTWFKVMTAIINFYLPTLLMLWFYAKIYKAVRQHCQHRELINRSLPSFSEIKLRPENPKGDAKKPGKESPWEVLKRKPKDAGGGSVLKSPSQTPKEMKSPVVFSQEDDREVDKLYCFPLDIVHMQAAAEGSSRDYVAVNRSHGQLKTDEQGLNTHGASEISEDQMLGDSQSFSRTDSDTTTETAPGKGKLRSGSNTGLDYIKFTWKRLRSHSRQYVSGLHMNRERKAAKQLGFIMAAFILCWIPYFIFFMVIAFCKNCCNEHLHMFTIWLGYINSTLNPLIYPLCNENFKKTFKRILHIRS

SMILES	D2 Ant GTPγS Top Effect (dopamine D2s receptor)	Ki (H1 receptor) [nM]	activity in D-amphetamine-induced hyperlocomotor activity [1]	activity in conditioned avoidance responding [2]
CN1CCN(C2=Nc3ccccc3Sc3ccc(Cl)cc32)CC1 [2-Chloro-11-(4-methyl-piperazin-1-yl)-dibenzo[b,f][1,4]thiazepine]	100	–	–	–
Clc1ccc2c(c1)C(N1CCNCC1)=Nc1ccccc1S2 [2-Chloro-11-piperazin-1-yl-dibenzo[b,f][1,4]thiazepine]	100	–	–	–

Continued, in another order:

D2 Ant GTPγS Top Effect (dopamine D2s receptor)	Ki (H1 receptor) [nM]	SMILES	activity in D-amphetamine-induced hyperlocomotor activity [1]	activity in conditioned avoidance responding [2]
100	–	CN1CCN(C2=Nc3ccccc3Sc3ccc(F)cc32)CC1 [2-Fluoro-11-(4-methyl-piperazin-1-yl)-dibenzo[b,f][1,4]thiazepine]	–	–
97	~7.1	Fc1ccc2c(c1)C(N1CCNCC1)=Nc1ccccc1S2 [Example 1, 2-fluoro-11-(piperazin-1-yl)dibenzo[b,f][1,4]thiazepine]	showed activity	showed activity
89	–	c1ccc2c(c1)N=C(N1CCNCC1)c1ccccc1S2 [11-Piperazin-1-yl-dibenzo[b,f][1,4]thiazepine]	–	–
